# ± gives the expanded uncertainty stated by the source.
# Assay: xn = mol fraction of the nth substance listed
# Details: 101 kPa, Liquid; for speed of sound: Pulse-echo method
smiles,measurement,setting,value
CCCCCCCCCO [nonan-1-ol] + Cc1ccc(C)cc1,speed of sound,"293.15 K, x2 = 0",1381 ± 2 m/s
same,speed of sound,"293.15 K, x2 = 0.0611",1378 ± 2 m/s
same,speed of sound,"293.15 K, x2 = 0.1108",1375 ± 2 m/s
same,speed of sound,"293.15 K, x2 = 0.1652",1372 ± 2 m/s
same,speed of sound,"293.15 K, x2 = 0.226",1368 ± 2 m/s
same,speed of sound,"293.15 K, x2 = 0.2932",1363 ± 2 m/s
same,speed of sound,"293.15 K, x2 = 0.3651",1357 ± 2 m/s
same,speed of sound,"293.15 K, x2 = 0.4248",1353 ± 2 m/s
same,speed of sound,"293.15 K, x2 = 0.5023",1347 ± 2 m/s
same,speed of sound,"293.15 K, x2 = 0.558",1343 ± 2 m/s
same,speed of sound,"293.15 K, x2 = 0.6359",1338 ± 2 m/s
same,speed of sound,"293.15 K, x2 = 0.7123",1334 ± 2 m/s
same,speed of sound,"293.15 K, x2 = 0.7744",1332 ± 2 m/s
same,speed of sound,"293.15 K, x2 = 0.8514",1330 ± 2 m/s
same,speed of sound,"293.15 K, x2 = 0.9286",1329 ± 2 m/s
same,mass density,"293.15 K, x2 = 0",827.7 ± 0.43 kg/m3
same,mass density,"293.15 K, x2 = 0.0611",829.31 ± 0.43 kg/m3
same,mass density,"293.15 K, x2 = 0.1108",830.62 ± 0.43 kg/m3
same,mass density,"293.15 K, x2 = 0.1652",832.08 ± 0.43 kg/m3
same,mass density,"293.15 K, x2 = 0.226",833.72 ± 0.44 kg/m3
same,mass density,"293.15 K, x2 = 0.2932",835.56 ± 0.44 kg/m3
same,mass density,"293.15 K, x2 = 0.3651",837.59 ± 0.44 kg/m3
same,mass density,"293.15 K, x2 = 0.4248",839.34 ± 0.45 kg/m3
same,mass density,"293.15 K, x2 = 0.5023",841.69 ± 0.45 kg/m3
same,mass density,"293.15 K, x2 = 0.558",843.46 ± 0.46 kg/m3
same,mass density,"293.15 K, x2 = 0.6359",846.06 ± 0.46 kg/m3
same,mass density,"293.15 K, x2 = 0.7123",848.77 ± 0.47 kg/m3
same,mass density,"293.15 K, x2 = 0.7744",851.12 ± 0.47 kg/m3
same,mass density,"293.15 K, x2 = 0.8514",854.23 ± 0.48 kg/m3
same,mass density,"293.15 K, x2 = 0.9286",857.59 ± 0.48 kg/m3
same,speed of sound,"303.15 K, x2 = 0",1347 ± 2 m/s
same,speed of sound,"303.15 K, x2 = 0.0611",1343 ± 2 m/s
same,speed of sound,"303.15 K, x2 = 0.1108",1340 ± 2 m/s
same,speed of sound,"303.15 K, x2 = 0.1652",1336 ± 2 m/s
same,speed of sound,"303.15 K, x2 = 0.226",1331 ± 2 m/s
same,speed of sound,"303.15 K, x2 = 0.2932",1326 ± 2 m/s
same,speed of sound,"303.15 K, x2 = 0.3651",1320 ± 2 m/s
same,speed of sound,"303.15 K, x2 = 0.4248",1315 ± 2 m/s
same,speed of sound,"303.15 K, x2 = 0.5023",1308 ± 2 m/s
same,speed of sound,"303.15 K, x2 = 0.558",1304 ± 2 m/s
same,speed of sound,"303.15 K, x2 = 0.6359",1299 ± 2 m/s
same,speed of sound,"303.15 K, x2 = 0.7123",1294 ± 2 m/s
same,speed of sound,"303.15 K, x2 = 0.7744",1291 ± 2 m/s
same,speed of sound,"303.15 K, x2 = 0.8514",1289 ± 2 m/s
same,speed of sound,"303.15 K, x2 = 0.9286",1288 ± 2 m/s
same,mass density,"303.15 K, x2 = 0",820.82 ± 0.44 kg/m3
same,mass density,"303.15 K, x2 = 0.0611",822.32 ± 0.44 kg/m3
same,mass density,"303.15 K, x2 = 0.1108",823.55 ± 0.44 kg/m3
same,mass density,"303.15 K, x2 = 0.1652",824.91 ± 0.44 kg/m3
same,mass density,"303.15 K, x2 = 0.226",826.44 ± 0.45 kg/m3
same,mass density,"303.15 K, x2 = 0.2932",828.16 ± 0.45 kg/m3
same,mass density,"303.15 K, x2 = 0.3651",830.07 ± 0.45 kg/m3
same,mass density,"303.15 K, x2 = 0.4248",831.7 ± 0.46 kg/m3
same,mass density,"303.15 K, x2 = 0.5023",833.91 ± 0.46 kg/m3
same,mass density,"303.15 K, x2 = 0.558",835.58 ± 0.47 kg/m3
same,mass density,"303.15 K, x2 = 0.6359",838.04 ± 0.47 kg/m3
same,mass density,"303.15 K, x2 = 0.7123",840.61 ± 0.48 kg/m3
same,mass density,"303.15 K, x2 = 0.7744",842.84 ± 0.48 kg/m3
same,mass density,"303.15 K, x2 = 0.8514",845.81 ± 0.49 kg/m3
same,mass density,"303.15 K, x2 = 0.9286",849.02 ± 0.49 kg/m3
same,speed of sound,"313.15 K, x2 = 0",1314 ± 2 m/s
same,speed of sound,"313.15 K, x2 = 0.0611",1310 ± 2 m/s
same,speed of sound,"313.15 K, x2 = 0.1108",1306 ± 2 m/s
same,speed of sound,"313.15 K, x2 = 0.1652",1301 ± 2 m/s
same,speed of sound,"313.15 K, x2 = 0.226",1296 ± 2 m/s
same,speed of sound,"313.15 K, x2 = 0.2932",1290 ± 2 m/s
same,speed of sound,"313.15 K, x2 = 0.3651",1284 ± 2 m/s
same,speed of sound,"313.15 K, x2 = 0.4248",1278 ± 2 m/s
same,speed of sound,"313.15 K, x2 = 0.5023",1272 ± 2 m/s
same,speed of sound,"313.15 K, x2 = 0.558",1267 ± 2 m/s
same,speed of sound,"313.15 K, x2 = 0.6359",1261 ± 2 m/s
same,speed of sound,"313.15 K, x2 = 0.7123",1256 ± 2 m/s
same,speed of sound,"313.15 K, x2 = 0.7744",1252 ± 2 m/s
same,speed of sound,"313.15 K, x2 = 0.8514",1249 ± 2 m/s
same,speed of sound,"313.15 K, x2 = 0.9286",1248 ± 2 m/s
same,mass density,"313.15 K, x2 = 0",813.88 ± 0.45 kg/m3
same,mass density,"313.15 K, x2 = 0.0611",815.27 ± 0.45 kg/m3
same,mass density,"313.15 K, x2 = 0.1108",816.41 ± 0.45 kg/m3
same,mass density,"313.15 K, x2 = 0.1652",817.67 ± 0.46 kg/m3
same,mass density,"313.15 K, x2 = 0.226",819.1 ± 0.46 kg/m3
same,mass density,"313.15 K, x2 = 0.2932",820.7 ± 0.46 kg/m3
same,mass density,"313.15 K, x2 = 0.3651",822.47 ± 0.46 kg/m3
same,mass density,"313.15 K, x2 = 0.4248",824 ± 0.47 kg/m3
same,mass density,"313.15 K, x2 = 0.5023",826.07 ± 0.47 kg/m3
same,mass density,"313.15 K, x2 = 0.558",827.63 ± 0.48 kg/m3
same,mass density,"313.15 K, x2 = 0.6359",829.95 ± 0.48 kg/m3
same,mass density,"313.15 K, x2 = 0.7123",832.39 ± 0.49 kg/m3
same,mass density,"313.15 K, x2 = 0.7744",834.5 ± 0.49 kg/m3
same,mass density,"313.15 K, x2 = 0.8514",837.33 ± 0.5 kg/m3
same,mass density,"313.15 K, x2 = 0.9286",840.41 ± 0.5 kg/m3

# Source: the NIST ThermoML archive (doi:10.1021/je100734t)
